Series [1] has as its system HCV subgenomic RNA replicon in Huh7 cells. The series can be described thus: HCV subgenomic RNA replicon assay (Replicon Assay), TaqMan RT-PCR of replicon RNA after 48 h treatment. Conditions: for Inhibition of replicon RNA accumulation: 48 hour treatment. It counts as cell-based, hepatitis C virus (HCV). From the text: The Replicon Assay measures the amount of HCV subgenomic RNA (replicon RNA) remaining in replicon cells (Lohman et al. Science 285:110-113 (1999)) after two days of drug treatment relative to the amount of replicon RNA in untreated cells. In this assay, the potency of compounds as HCV antiviral drugs is directly proportional to the level of inhibition of replicon RNA accumulation.
The Replicon Assay employing a cell line containing the self-replicating HCV subgenomic RNA (replicon) is described in Lohmann et al. Science 285:110-113 (1999). The Genbank accession number for the sequence of the replicon used in the experiments described herein is listed in this reference as AJ242654. This paper discloses methods for in vitro transcription of RNA from the replicon cDNA, transfection of the replicon RNA into Huh7 cells by electroporation, and selection of cells containing the replicon RNA using the antibiotic G418. Huh7 cells are a hepatoma cell line obtained from Dr. William Mason at Fox Chase Cancer Research Center (Philadelphia). These cells are publicly available from Fox Chase, and have been extensively described in the scientific literature (Nakabayashi at al. Cancer Res. 42:3858-3863 (1982)). In the experiments described herein, all of the template DNA is removed from the in vitro transcribed replicon RNA preparation prior to electroporation of this RNA into Huh7 cells by multiple treatment with DNase (three sequential treatments).
The Replicon Assay is performed as described in detail below. Briefly, Replicon cells are placed in 96 well trays at a density of 10,000 cells per well and incubated 37° C. The cells are incubated in DMEM ([…]) supplemented with 10% fetal bovine serum, glutamine, nonessential amino acids, and the antibiotic G418 (0.25 mg/ml). […] Each compound is tested at six to eight different concentrations. […] Each HCV serine protease inhibitor concentration is tested without any added interferon, as well as with the addition of six to eight different interferon doses. Similarly, interferon is tested without any added HCV serine protease inhibitor. After a 48-hour incubation with the compounds, the medium is removed from the plates, and total cellular RNA is extracted from the cells using the RNeasy-96 kit manufactured by Qiagen Inc. (Valencia, Calif.). This RNA is then analyzed by quantitative RT-PCR, or TaqMan® (Applied Biosystems, Foster City Calif.). The TaqMan® RT-PCR target is the neomycin resistance gene in the replicon RNA. The plates are configured so that there are 5 replicates of each drug treatment sample, and 16 replicates of the untreated samples. This permits greater statistical confidence in the quantitative RT-PCR data.
Analysis of the Replicon Assay data yields two values that are useful in assessing the potency of potential HCV antiviral agents. At each compound concentration tested, the level of inhibition in replicon RNA accumulation caused by the compound during two days of treatment relative to the amount of replicon RNA in untreated cells is determined. This is reported as percent inhibition. […] The IC50 is the value used to rank individual compounds tested in this assay based on their potency as HCV antiviral agents. Simple IC50 determinations are inadequate to assess the utility of compounds used in combination.
The Replicon Assay is used to measure the capacity of potential HCV antiviral compounds to inhibit the accumulation of a HCV subgenomic RNA replicon molecule in a Huh7 cell line (Lohmann et al. Replication of Subgenomic Hepatitis C Virus RNAs in a Hepatoma Cell Line. Science 285, 110-113 (1999)).
(In general: Replicon systems follow genome replication, usually without infectious particles.)

A short description of series [2]: XTT metabolic assay to determine replicon cell viability. As to conditions: human. The text has this: (§1) Inflamation Research. […] It is assumed that the level of GAPDH mRNA, which is a constitutively expressed housekeeping gene, is the same in all viable cells. […] Thus, it is postulated, as done by others using TaqMan® technology to determine the levels of particular mRNAs in human cells, that GAPDH mRNA levels are proportional to viable cell numbers (VCN) in any given sample, with the relationship of VCN=2^̂(40−CtGAPDH mRNA). The VCN is computed for each of the Replicon Assay sample wells, and then we divide the HCV Replicon RNA copy number for a specific well by the VCN for that well. Once computed, this ratio is used instead of the HCV copy number to compute inhibition (“Avg. Inh using ratio”; FIG. 14A). […] In the Replicon Assay, it is assumed that the measured inhibition of HCV RNA replicon accumulation is the sum of the actual inhibition of HCV RNA replicon accumulation and the apparent inhibition of HCV RNA replicon accumulation due to cytoxicity. […] Thus, the true anti-HCV activity of a compound in the Replicon Assay corrected for general cytotoxicity can be estimated by dividing the number of HCV replicon RNA molecules measured in each sample by the VCN, thus normalizing to the number of viable cells in each sample. […] In FIG. 14A, “Avg.
(In general: Tetrazolium assays rely on reduction of a dye to a coloured formazan, in cell work by metabolically active cells.)

Series [3] concerns replicon cells (glyceraldehyde-3-phosphate dehydrogenase (GAPDH) mRNA levels). The series can be described thus: TaqMan quantitative RT-PCR of GAPDH mRNA levels in treated versus untreated replicon cells (cytotoxicity measure). As to conditions: treated versus untreated cells in the Replicon Assay.
Description: as §1

Where [4] appears, read: Hepatitis C virus, Huh-7, 48 h, read-out: IC50 HSPI, antiviral compound used individually, HCV replicon RNA accumulation, 48 h, response-surface fit (Ribavirin corrected for cytotoxicity).
Setting [5] is: read-out: IC50 HSPI, antiviral compound used individually, HCV replicon RNA accumulation, 48 h, response-surface fit (Ribavirin corrected for cytotoxicity).

Where “and” joins values, the source holds several entries; their conditions need not be identical. Identical values can stand only once. Like-named read-outs stand apart in the source and are kept apart here. Some results are limits rather than exact numbers.

For the molecule `CCC[C@H](NC(=O)[C@@H]1[C@H]2CCC[C@H]2CN1C(=O)[C@@H](NC(=O)[C@@H](NC(=O)c1cnccn1)C1CCCCC1)C(C)(C)C)C(=O)C(=O)NC1CC1` [Compound CU], the “Inhibition of replicon RNA accumulation” value in series [1] (Compound CU 0.0123 μM alone (interferon-alpha 2B 0 U)) worked out at 5%; in series [1] (Compound CU 0.0370 μM alone (interferon-alpha 2B 0 U)), 8%; in series [1] (Compound CU 0.1111 μM alone (interferon-alpha 2B 0 U)), 11%; in series [1] (Compound CU 0.333 μM alone (interferon-alpha 2B 0 U)) it was 28%; in series [1] (Compound CU 1 μM alone (interferon-alpha 2B 0 U)) it was 88%; in series [1] (Compound CU 3 μM alone (interferon-alpha 2B 0 U)), 98%. The IC50 (usually the concentration needed to halve the response being measured) in series [1] (Hepatitis C virus, Huh-7, 48 h, Compound CU as single drug treatment, initial experiment, replicon RNA accumulation 48 h) is 480 nM; in series [1] (setting [4]) it was 469 nM; in series [1] (setting [5]) it was 446 nM and 587 nM and 633 nM and 605 nM and 466 nM. Moreover, the CC50 in series [2] (HCV replicon cells (Huh7)) was 64700 nM.

As to `CCC[C@H](NC(=O)C1[C@H]2CCC[C@H]2CN1C(=O)[C@@H](NC(=O)[C@@H](NC(=O)[C@@H](C)NC(=O)OC)C1CCCCC1)C(C)(C)C)C(=O)C(=O)NC1CC1` (stereo partly shown) [Compound EC], the IC50 in series [1] (setting [4]) is 384 nM; in series [1] (setting [5]), 312 nM. This molecule gave a CC50 in series [2] (HCV replicon cells (Huh7)) of over 50000 nM.

With `CCC[C@@H](NC(=O)[C@@H]1[C@H]2CCCC2CN1C(=O)[C@@H](NC(=O)[C@H](NC(=O)c1cnccn1)C1CCCCC1)[C@H](C)CC)C(=O)C(=O)NC1CC1` (stereo partly shown) [Compound EP], in series [1] (setting [4]), the IC50 turned out to be 426 nM. Moreover, the CC50 in series [2] was over 10000 nM.

Regarding `NC(=O)c1ncn([C@@H]2O[C@H](CO)[C@@H](O)[C@H]2O)n1` [Ribavirin, reference compound], the IC50 in series [1] (setting [4]) is 145000 nM; in series [1] (Hepatitis C virus, Huh-7, read-out: uncorrected IC50 (Avg. Inh original), not corrected for cytotoxicity) it was about 80000 nM. In addition, the “reduction of accumulation of HCV replicon RNA (in words)” value in series [1] (compound alone) was “marginally effective”. In series [3], the “cytotoxicity (GAPDH mRNA levels, TaqMan RT-PCR)” value was “significant Ribavirin-induced cytotoxicity”.

For the origin of these results see patent US20140294763A1, “PEPTIDOMIMETIC PROTEASE INHIBITORS” (priority 2000, published 2014).
